Data taken from ChEMBL document CHEMBL2040736, “Design of potent and selective hybrid inhibitors of the mitotic kinase Nek2: structure-activity relationship, structural biology, and cellular activity” (J Med Chem, 2012).

Tests used:
[1] = biological target: Serine/threonine-protein kinase PLK1 (Homo sapiens, UniProt P53350); experiment: Inhibition of Plk1 using 5-FAMRRRAGALMDASFEEQ- CONH2 as substrate after 75 mins by caliper method
[2] = biological target: MAP kinase-activated protein kinase 2 (Homo sapiens) (UniProt P49137); experiment: Inhibition of MAPKAPK2 at 1 uM incubated for 30 mins prior to substrate addition study done at apparent ATP Km for enzyme
[3] = biological target: Protein kinase C zeta type (Homo sapiens) (UniProt Q05513); experiment: Inhibition of PKCzeta at 1 uM incubated for 30 mins prior to substrate addition study done at apparent ATP Km for enzyme
[4] = biological target: Ribosomal protein S6 kinase alpha-1 (Homo sapiens) (UniProt Q15418); experiment: Inhibition of RSK1 at 1 uM incubated for 30 mins prior to substrate addition study done at apparent ATP Km for enzyme
[5] = biological target: MAP kinase-activated protein kinase 5 (Homo sapiens) (UniProt Q8IW41); experiment: Inhibition of PRAK at 1 uM incubated for 30 mins prior to substrate addition study done at apparent ATP Km for enzyme
[6] = biological target: Serine/threonine-protein kinase D2 (Homo sapiens) (UniProt Q9BZL6); experiment: Inhibition of PKD2 at 1 uM incubated for 30 mins prior to substrate addition study done at apparent ATP Km for enzyme
[7] = biological target: T1, Tyrosine-protein kinase ABL1 (Homo sapiens, UniProt P00519); experiment: Inhibition of ABL at 1 uM incubated for 30 mins prior to substrate addition study done at apparent ATP Km for enzyme
T1 sequence (P00519 whole entry): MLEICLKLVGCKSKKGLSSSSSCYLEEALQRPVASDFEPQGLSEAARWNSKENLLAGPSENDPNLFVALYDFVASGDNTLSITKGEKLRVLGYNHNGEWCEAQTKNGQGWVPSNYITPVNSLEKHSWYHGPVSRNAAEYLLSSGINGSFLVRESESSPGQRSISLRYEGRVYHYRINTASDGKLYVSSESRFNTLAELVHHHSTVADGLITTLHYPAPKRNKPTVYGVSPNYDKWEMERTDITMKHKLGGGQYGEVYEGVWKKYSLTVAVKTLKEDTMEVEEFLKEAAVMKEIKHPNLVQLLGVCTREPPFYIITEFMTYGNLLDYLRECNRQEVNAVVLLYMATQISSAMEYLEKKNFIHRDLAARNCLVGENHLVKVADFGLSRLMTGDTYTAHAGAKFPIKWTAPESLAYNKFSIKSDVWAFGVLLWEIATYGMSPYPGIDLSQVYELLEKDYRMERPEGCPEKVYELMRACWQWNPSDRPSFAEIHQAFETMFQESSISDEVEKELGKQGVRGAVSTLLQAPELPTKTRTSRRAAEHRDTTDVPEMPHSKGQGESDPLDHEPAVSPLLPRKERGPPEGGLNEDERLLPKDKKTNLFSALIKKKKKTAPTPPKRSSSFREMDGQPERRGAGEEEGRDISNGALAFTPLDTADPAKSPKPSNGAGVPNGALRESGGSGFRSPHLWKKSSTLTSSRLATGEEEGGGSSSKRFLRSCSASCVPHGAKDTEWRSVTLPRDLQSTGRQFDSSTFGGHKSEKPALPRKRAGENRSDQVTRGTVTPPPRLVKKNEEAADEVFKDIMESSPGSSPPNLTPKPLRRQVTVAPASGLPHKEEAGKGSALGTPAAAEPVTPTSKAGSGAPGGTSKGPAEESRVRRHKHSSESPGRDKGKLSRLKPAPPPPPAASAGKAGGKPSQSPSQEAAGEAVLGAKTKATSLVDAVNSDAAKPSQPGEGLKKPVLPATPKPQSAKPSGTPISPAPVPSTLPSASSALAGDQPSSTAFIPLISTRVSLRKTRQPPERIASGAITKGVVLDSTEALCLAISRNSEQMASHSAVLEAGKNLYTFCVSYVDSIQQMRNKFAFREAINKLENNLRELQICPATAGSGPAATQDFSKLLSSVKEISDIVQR

[8] = biological target: T1, Tyrosine-protein kinase ABL1; experiment: Inhibition of ABL at 1 uM
[9] = biological target: T2, Tyrosine-protein kinase Fyn (Homo sapiens, UniProt P06241); experiment: Inhibition of FYN at 1 uM incubated for 30 mins prior to substrate addition study done at apparent ATP Km for enzyme
[10] = biological target: T2, Tyrosine-protein kinase Fyn; experiment: Inhibition of FYN incubated for 30 mins prior to substrate addition study done at apparent ATP Km for enzyme
[11] = biological target: T3, Tyrosine-protein kinase Lyn (Homo sapiens, UniProt P07948); experiment: Inhibition of LYN at 1 uM incubated for 30 mins prior to substrate addition study done at apparent ATP Km for enzyme
[12] = biological target: T3, Tyrosine-protein kinase Lyn; experiment: Inhibition of LYN incubated for 30 mins prior to substrate addition study done at apparent ATP Km for enzyme
[13] = biological target: T4, Serine/threonine-protein kinase Chk2 (Homo sapiens, UniProt O96017); experiment: Inhibition of CHK2 incubated for 30 mins prior to substrate addition study done at apparent ATP Km for enzyme
T4 sequence (O96017 whole entry): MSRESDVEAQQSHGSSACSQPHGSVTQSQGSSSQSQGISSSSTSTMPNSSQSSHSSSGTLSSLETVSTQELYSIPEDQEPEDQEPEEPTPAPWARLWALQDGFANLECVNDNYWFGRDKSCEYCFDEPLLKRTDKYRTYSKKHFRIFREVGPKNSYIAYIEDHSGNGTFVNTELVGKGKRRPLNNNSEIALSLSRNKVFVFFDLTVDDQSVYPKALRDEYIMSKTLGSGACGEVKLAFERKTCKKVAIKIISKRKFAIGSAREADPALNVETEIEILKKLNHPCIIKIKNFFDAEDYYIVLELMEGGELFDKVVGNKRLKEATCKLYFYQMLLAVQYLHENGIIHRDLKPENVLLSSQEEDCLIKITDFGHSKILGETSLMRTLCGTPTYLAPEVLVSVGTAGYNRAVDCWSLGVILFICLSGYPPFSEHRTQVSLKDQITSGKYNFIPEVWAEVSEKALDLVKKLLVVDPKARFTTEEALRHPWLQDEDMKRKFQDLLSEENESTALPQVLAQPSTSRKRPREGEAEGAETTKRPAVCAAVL

[14] = biological target: T5, Hepatocyte growth factor receptor (Homo sapiens, UniProt P08581); experiment: Inhibition of MET incubated for 30 mins prior to substrate addition study done at apparent ATP Km for enzyme
T5 sequence (P08581 whole entry): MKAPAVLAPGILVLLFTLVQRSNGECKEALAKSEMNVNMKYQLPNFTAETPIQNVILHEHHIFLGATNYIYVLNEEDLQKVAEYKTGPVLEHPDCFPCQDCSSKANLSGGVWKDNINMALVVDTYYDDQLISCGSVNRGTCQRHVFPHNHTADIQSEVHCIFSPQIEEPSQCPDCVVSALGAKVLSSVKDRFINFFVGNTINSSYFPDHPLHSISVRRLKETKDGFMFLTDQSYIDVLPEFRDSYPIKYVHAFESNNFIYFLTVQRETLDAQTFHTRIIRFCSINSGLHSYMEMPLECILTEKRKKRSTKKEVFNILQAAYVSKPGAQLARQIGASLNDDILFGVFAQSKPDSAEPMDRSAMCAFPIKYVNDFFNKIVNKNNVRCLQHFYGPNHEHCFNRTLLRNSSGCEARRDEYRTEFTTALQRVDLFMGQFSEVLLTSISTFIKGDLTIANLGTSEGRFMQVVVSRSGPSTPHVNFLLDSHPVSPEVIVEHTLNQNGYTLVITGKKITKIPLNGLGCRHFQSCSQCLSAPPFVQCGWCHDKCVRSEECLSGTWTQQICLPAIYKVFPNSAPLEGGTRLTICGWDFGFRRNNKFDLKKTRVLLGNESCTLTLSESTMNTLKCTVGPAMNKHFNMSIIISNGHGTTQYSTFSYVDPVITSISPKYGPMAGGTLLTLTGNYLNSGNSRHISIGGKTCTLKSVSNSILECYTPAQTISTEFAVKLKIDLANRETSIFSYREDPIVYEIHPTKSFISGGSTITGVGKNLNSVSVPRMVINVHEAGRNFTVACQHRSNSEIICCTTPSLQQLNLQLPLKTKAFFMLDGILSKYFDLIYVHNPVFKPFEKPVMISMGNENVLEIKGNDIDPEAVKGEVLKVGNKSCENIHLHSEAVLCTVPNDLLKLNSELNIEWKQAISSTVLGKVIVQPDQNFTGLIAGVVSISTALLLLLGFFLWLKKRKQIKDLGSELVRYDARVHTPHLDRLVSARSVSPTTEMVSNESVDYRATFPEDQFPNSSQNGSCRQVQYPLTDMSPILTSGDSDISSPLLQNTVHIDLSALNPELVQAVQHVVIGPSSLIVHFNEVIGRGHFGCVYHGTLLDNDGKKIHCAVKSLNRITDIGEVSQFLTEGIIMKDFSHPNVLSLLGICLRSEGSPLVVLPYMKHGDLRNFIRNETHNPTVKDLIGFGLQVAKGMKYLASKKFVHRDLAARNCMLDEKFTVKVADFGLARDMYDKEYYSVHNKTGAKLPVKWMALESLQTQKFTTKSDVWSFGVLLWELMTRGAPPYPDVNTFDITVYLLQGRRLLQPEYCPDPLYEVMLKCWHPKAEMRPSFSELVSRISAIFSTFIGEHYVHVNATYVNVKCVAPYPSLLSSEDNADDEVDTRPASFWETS

[15] = biological target: T6, Tyrosine-protein kinase Lck (Homo sapiens, UniProt P06239); experiment: Inhibition of LCK at 1 uM incubated for 30 mins prior to substrate addition study done at apparent ATP Km for enzyme
[16] = biological target: T6, Tyrosine-protein kinase Lck; experiment: Inhibition of LCK incubated for 30 mins prior to substrate addition study done at apparent ATP Km for enzyme
[17] = biological target: T7, Glycogen synthase kinase-3 beta (Homo sapiens, UniProt P49841); experiment: Inhibition of GSK3beta at 1 uM incubated for 30 mins prior to substrate addition study done at apparent ATP Km for enzyme
[18] = biological target: T7, Glycogen synthase kinase-3 beta; experiment: Inhibition of GSK3beta incubated for 30 mins prior to substrate addition study done at apparent ATP Km for enzyme
[19] = biological target: Mitogen-activated protein kinase 1 (Homo sapiens) (UniProt P28482); experiment: Inhibition of Erk2 at 1 uM incubated for 30 mins prior to substrate addition study done at apparent ATP Km for enzyme
[20] = biological target: RAC-beta serine/threonine-protein kinase (Homo sapiens) (UniProt P31751); experiment: Inhibition of AKT2 at 1 uM incubated for 30 mins prior to substrate addition study done at apparent ATP Km for enzyme
Sequence of RAC-beta serine/threonine-protein kinase (Homo sapiens) (P31751 whole entry): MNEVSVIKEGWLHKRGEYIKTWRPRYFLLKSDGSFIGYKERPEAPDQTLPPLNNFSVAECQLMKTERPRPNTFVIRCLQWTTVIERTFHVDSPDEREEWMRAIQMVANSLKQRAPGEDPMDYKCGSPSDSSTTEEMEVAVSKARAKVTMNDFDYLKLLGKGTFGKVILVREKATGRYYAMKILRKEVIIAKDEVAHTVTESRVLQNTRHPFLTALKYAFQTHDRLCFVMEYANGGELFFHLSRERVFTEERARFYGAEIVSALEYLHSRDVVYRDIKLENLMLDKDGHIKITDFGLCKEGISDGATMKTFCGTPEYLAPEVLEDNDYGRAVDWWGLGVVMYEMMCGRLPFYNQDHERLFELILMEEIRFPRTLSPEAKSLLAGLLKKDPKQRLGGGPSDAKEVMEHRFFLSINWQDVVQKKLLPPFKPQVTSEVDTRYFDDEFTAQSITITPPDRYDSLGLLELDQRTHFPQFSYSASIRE

[21] = biological target: Insulin receptor (Homo sapiens) (UniProt P06213); experiment: Inhibition of INSR at 1 uM incubated for 30 mins prior to substrate addition study done at apparent ATP Km for enzyme
Sequence of Insulin receptor (Homo sapiens) (P06213 28-758 limits assumed): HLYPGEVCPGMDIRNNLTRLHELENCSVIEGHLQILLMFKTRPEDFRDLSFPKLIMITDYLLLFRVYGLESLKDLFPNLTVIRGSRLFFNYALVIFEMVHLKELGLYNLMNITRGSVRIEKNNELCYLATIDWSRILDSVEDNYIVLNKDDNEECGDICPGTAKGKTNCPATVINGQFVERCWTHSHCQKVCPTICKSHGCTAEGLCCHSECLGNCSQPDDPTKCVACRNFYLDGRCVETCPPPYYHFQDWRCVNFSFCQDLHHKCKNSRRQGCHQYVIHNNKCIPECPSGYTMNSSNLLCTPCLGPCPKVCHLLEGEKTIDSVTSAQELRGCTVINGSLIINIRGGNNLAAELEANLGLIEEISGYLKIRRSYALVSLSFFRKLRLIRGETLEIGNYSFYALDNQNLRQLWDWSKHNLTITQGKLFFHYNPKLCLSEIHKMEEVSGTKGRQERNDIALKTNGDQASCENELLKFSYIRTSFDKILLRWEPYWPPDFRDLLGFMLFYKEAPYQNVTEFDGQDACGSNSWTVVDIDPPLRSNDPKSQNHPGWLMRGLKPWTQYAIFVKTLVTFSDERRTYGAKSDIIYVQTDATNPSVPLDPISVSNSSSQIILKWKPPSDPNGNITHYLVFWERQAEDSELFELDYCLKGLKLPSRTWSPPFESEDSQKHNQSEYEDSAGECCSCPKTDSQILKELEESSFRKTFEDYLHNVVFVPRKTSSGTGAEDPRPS
Sequence of Insulin receptor (Homo sapiens) (P06213 763-1382 limits assumed): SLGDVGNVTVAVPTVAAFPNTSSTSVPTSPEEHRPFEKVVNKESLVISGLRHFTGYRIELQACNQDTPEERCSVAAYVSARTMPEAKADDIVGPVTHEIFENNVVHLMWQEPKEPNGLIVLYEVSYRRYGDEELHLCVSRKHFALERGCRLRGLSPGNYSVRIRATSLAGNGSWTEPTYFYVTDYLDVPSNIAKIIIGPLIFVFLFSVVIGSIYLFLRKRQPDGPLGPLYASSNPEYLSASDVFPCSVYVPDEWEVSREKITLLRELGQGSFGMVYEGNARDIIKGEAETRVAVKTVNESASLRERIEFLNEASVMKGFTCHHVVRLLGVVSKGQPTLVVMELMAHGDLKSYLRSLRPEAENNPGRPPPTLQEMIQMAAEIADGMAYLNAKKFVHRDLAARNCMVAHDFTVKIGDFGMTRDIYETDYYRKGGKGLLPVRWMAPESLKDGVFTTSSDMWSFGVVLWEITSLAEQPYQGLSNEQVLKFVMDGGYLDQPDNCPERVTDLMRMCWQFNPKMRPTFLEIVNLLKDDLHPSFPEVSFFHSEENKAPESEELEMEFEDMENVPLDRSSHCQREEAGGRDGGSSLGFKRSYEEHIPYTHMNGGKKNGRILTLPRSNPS

[22] = biological target: Mitogen-activated protein kinase 14 (Homo sapiens) (UniProt Q16539); experiment: Inhibition of p38alpha at 1 uM incubated for 30 mins prior to substrate addition study done at apparent ATP Km for enzyme
[23] = biological target: RAC-alpha serine/threonine-protein kinase (Homo sapiens) (UniProt P31749); experiment: Inhibition of AKT1 at 1 uM incubated for 30 mins prior to substrate addition study done at apparent ATP Km for enzyme
[24] = biological target: Ribosomal protein S6 kinase alpha-5 (Homo sapiens) (UniProt O75582); experiment: Inhibition of MSK1 at 1 uM incubated for 30 mins prior to substrate addition study done at apparent ATP Km for enzyme
U2OS = experiment: Growth inhibition of human U2OS cells after 92 hrs by CellTiter-Blue assay; type: functional
MDA-MB-231 = experiment: Growth inhibition of human MDA-MB-231 cells after 92 hrs by CellTiter-Blue assay; type: functional; details: MDA-MB-231, 92 h
[25] = Inhibition of CH1D at 1 uM incubated for 30 mins prior to substrate addition study done at apparent ATP Km for enzyme
[26] = Inhibition of CH1D incubated for 30 mins prior to substrate addition study done at apparent ATP Km for enzyme
[27] = biological target: T8, Serine/threonine-protein kinase Nek2 (Homo sapiens, UniProt P51955)
T8 sequence (P51955 whole entry): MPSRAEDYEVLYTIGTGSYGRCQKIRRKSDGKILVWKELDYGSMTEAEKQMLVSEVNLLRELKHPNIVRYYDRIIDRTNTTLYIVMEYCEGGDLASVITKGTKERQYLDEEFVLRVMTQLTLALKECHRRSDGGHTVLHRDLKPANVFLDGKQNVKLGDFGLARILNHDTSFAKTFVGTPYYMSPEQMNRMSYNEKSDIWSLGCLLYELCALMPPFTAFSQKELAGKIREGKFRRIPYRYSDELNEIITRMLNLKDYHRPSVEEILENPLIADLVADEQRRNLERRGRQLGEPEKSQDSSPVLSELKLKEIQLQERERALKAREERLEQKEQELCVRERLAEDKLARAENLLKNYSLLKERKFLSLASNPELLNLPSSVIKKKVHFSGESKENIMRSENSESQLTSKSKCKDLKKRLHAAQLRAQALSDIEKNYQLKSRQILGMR

[28] = biological target: T8, Serine/threonine-protein kinase Nek2; remark: listed apart in the source
Description: Inhibition of Nek2-mediated C-Nap1 phosphorylation in human U2OS cells after 3 hrs by immunofluorescence microscopy

[29] = biological target: Aurora kinase A (Homo sapiens) (UniProt O14965); details: 1 uM
[30] = biological target: T4, Serine/threonine-protein kinase Chk2; details: 1 uM
[31] = biological target: T5, Hepatocyte growth factor receptor; details: 1 uM
[32] = biological target: Proto-oncogene tyrosine-protein kinase Src (Homo sapiens, UniProt P12931); details: 1 uM

In the case of `C[C@H](/C=C\C(F)(F)F)Oc1cc(-c2cc(-c3cc(CN(C)C)cs3)cnc2N)ccc1C(N)=O`, the IC50 [1] is reported as 5820 nM, the inhibition [2] is reported as 6% and the inhibition [3] is reported as 12%. The inhibition [4] was 29%, the inhibition [5] was 7% and the inhibition [6] was 77%. For the same compound, the inhibition [7] was 46%, the IC50 [8] was 1110 nM and the inhibition [9] was 57%. For the same compound, the IC50 [10] was 750 nM, the inhibition [11] was 43% and the IC50 [12] was 1360 nM. For the same compound, the IC50 [13] was 2000 nM, the IC50 [14] was 1170 nM and the inhibition [15] was 89%. For the same compound, the IC50 [16] was 110 nM, the inhibition [17] was 93% and the IC50 [18] was 70 nM. The inhibition [19] was 11%, the inhibition [20] was 0% and the inhibition [21] was 0%. It also gave an inhibition [22] of 0%, an inhibition [23] of 3% and an inhibition [24] of 25%. For the same compound, the GI50 (U2OS) was 1820 nM, the GI50 (MDA-MB-231) was 4160 nM and the inhibition [25] was 67%. The IC50 [26] was 430 nM, the IC50 [27] was 22 nM and the IC50 [28] was 800 nM. For the same compound, the inhibition [29] was 19%, the inhibition [30] was 32% and the inhibition [31] was 46%. The inhibition [32] was 51%.
